Molecules are shown by their SMILES.

The test system of data set [1] is rats with monocrotaline induced pulmonary arterial hypertension. Description: Hemodynamic evaluation in anesthetized rats treated with monocrotaline to induce pulmonary arterial hypertension. To be noted: for HR / HW/BW / Heart Wt / LV Wt / Lung Wt / MAP / Mean PAP / RV Wt / RV/BW / Systolic PAP / RV/LV + S: 28 days, MCT rats, mean ± SEM; for RV/LV + S: Fulton's Index. The format is in vivo, Sprague-Dawley rats. As to the method: The effects of sildenafil and anagrelide were evaluated in rats with monocrotaline induced pulmonary arterial hypertension. Male Sprague-Dawley rats were orally administered vehicle (variable, see below), anagrelide (1 mg/kg given once daily for 28 days or 2 mg/kg total daily dose, divided into a BID regimen given every day for 28 days starting on Day 1), or sildenafil (30 mg/kg, administered twice daily) (n=10 in each group). Rats received a single injection of monocrotaline (60 mg/kg, s.c.) on Study Day 1. On the twenty-eighth day following monocrotaline dosing, the rats were anesthetized with ketamine/xylazine for terminal monitoring of pulmonary and systemic arterial pressures along with heart rate. The study design for the test article and vehicle administrations are detailed below: […]

In data set [2] the test system is platelets. To be noted: preclinical pharmacology data; in words; cited from earlier work.
Data set [3] relates to rat monocrotaline (MCT) model of PAH. The data set is described as follows: Pulmonary arterial hypertension efficacy model: monocrotaline rat. Format: in vivo, Sprague-Dawley rats. The conditions noted are these: in words. As to the method:
Adult male Sprague-Dawley rats (287±4 g) were obtained from Charles River Laboratories (Raleigh, N.C.). Animals housed individually in a temperature/humidity controlled room with 12-hour light/dark cycles, had free access to water and food and were acclimated for one week prior to the study. Rats were randomly assigned to one of the experimental groups (n=10 per group). Rats in groups 1 and 2 served as healthy controls; the remaining rats were injected subcutaneously on Day 0 with 60 mg/kg body weight monocrotaline, the toxic alkaloid of Crotalaria spectabilis, (dissolved in DMSO at a concentration of 60 mg/ml, Sigma Aldrich, St. Louis, Mo.). On days 1-21, the rats were dosed via oral gavage (2 ml/kg) with vehicle (PBS), or the test compound—Anagrelide. Rats were weighed daily, and the dosages of test compound adjusted appropriately.
Monocrotaline (MCT) is an 11-membered macrocyclic pyrrolizidine plant alkaloid. A single SQ injection into rats results in hepatic generation of toxic metabolite—MCT pyrrole. Phase II metabolism of MCT is through glutathione conjugation. Reactive metabolite is transported to lungs, injuring pulmonary vasculature.

The conditions of data set [4]: metabolite versus anagrelide; cited from earlier work.
Data set [5] concerns platelets. The conditions noted are these: metabolite; in words; cited from earlier work.
Where [6] appears, read: 2 mg/kg/day given BID, after 28 days, in words.
Where [7] appears, read: Anagrelide 1 mg/kg once daily oral.
Where [8] appears, read: Anagrelide 2 mg/kg/day bid oral.
[9] abbreviates: daily oral doses for three weeks.
The mark [10] stands for this setting: Sildenafil 60 mg/kg/day bid oral.

As for `O=C1CN2Cc3c(ccc(Cl)c3Cl)N=C2N1` [Anagrelide, anagrelide], in data set [1] (setting [6]), the “mean pulmonary arterial pressure compared to the vehicle group” value is given as “differences” and the “systolic pulmonary arterial pressure compared to the vehicle group” value is reported as “reduction”. In data set [1] (setting [7]), the HR was 325 ± 28 bpm, the HW/BW is listed as 4.34 ± 0.45, the “Heart Wt” value was determined as 1.37 ± 0.03 g and the “LV Wt” value amounted to 0.76 ± 0.01 g. Moreover, in data set [1] (setting [7]), the “Lung Wt” value is listed as 2.10 ± 0.19 g, the MAP is on record as 59 ± 5 mm Hg, the “Mean PAP” value is on record as 36 ± 2 mm Hg and the “RV Wt” value amounted to 0.47 ± 0.01 g. In addition, in data set [1] (setting [7]), the RV/BW is 1.49 ± 0.16, the “Systolic PAP” value was 44 ± 2 mm Hg and the “RV/LV + S” value was 0.62 ± 0.01. For the same compound, in data set [1] (setting [8]), the HR was 258 ± 10 bpm, the HW/BW is 3.98 ± 0.24, the “Heart Wt” value is on record as 1.21 ± 0.04 g and the “LV Wt” value was 0.69 ± 0.02 g. For the same compound, in data set [1] (setting [8]), the “Lung Wt” value is 2.21 ± 0.07 g, the MAP is on record as 52 ± 6 mm Hg, the “Mean PAP” value was 36 ± 2 mm Hg and the “RV Wt” value amounted to 0.41 ± 0.02 g. In addition, in data set [1] (setting [8]), the RV/BW was 1.35 ± 0.12, the “Systolic PAP” value is listed as 43 ± 4 mm Hg and the “RV/LV + S” value stood at 0.59 ± 0.04. Further, the “hypertrophy when correcting RV (wt) by body weight” value in data set [1] (at either dose, in words) is on record as “decrease in hypertrophy”. Moreover, in data set [1] (in words), the “Mean arterial pressure compared to vehicle” value is listed as “lower” and the “right ventricular hypertrophy (RV/LV+S, Fulton's Index) compared to vehicle” value is on record as “no change”. Further, in the data set with platelets [2], the “effect on other cellular components of the blood” value was “no significant effect” and the “inhibition of platelet aggregation” value is on record as “potent inhibitor”. Moreover, the “development of PAH” value in data set [3] (daily oral doses for three weeks after MCT 60 mg/kg s.c.) is “prevent the development of PAH”. In data set [3] (setting [9]), the “hypertrophy of the right ventricle” value is recorded as “prevents” and the “monocrotaline (MCT)-induced elevations in pressure in the pulmonary arterial circuit” value is listed as “prevents”.
Regarding `O=C1NC2=Nc3ccc(Cl)c(Cl)c3CN2C1O` (stereo not drawn) [BCH24426, 3-hydroxy anagrelide], the “Exposure as measured by plasma AUC compared to anagrelide” value in data set [4] is “approximately 2 fold”.
For the compound `NC1=Nc2ccc(Cl)c(Cl)c2CN1` [RL603, 5,6-dichloro-3,4-dihydroquinazolin-2-ylamine], the “participation in the overall effect of AGRYLIN” value in the data set on platelets [5] was “does not participate”.
For `CCCc1nn(C)c2c(=O)[nH]c(-c3cc(S(=O)(=O)N4CCN(C)CC4)ccc3OCC)nc12` [Sildenafil], in data set [1] (setting [10]), the “RV/LV + S” value is 0.51 ± 0.03, the HR came to 278 ± 21 bpm, the HW/BW was 3.89 ± 0.17 and the “Heart Wt” value is given as 1.24 ± 0.02 g. Further, in data set [1] (setting [10]), the “LV Wt” value stood at 0.74 ± 0.02 g, the “Lung Wt” value stood at 2.36 ± 0.13 g, the MAP turned out to be 69 ± 5 mm Hg and the “Mean PAP” value is reported as 38± 6 mm Hg. In data set [1] (setting [10]), the “RV Wt” value is 0.38 ± 0.02 g, the RV/BW is 1.19 ± 0.09 and the “Systolic PAP” value was determined as 46 ± 7 mm Hg.

Values taken from US10022377B2, “Method of treating hypertension” (Cipla Limited, priority 2015, dated 2018).
